# Measurements reported in US8815210B2, “Diagnostic composition comprising plasma cations having superior safety profile” (GE Healthcare AS, priority 2009, dated 2014).
# Entries after “also recorded” stand apart in the source; their conditions may differ.
# Assays:
# normal pigs = experiment: Haemodynamic effects after LAD injection in normal pigs without balloon occlusion (Example 2b); assay type: in vivo, pig; conditions: 25 ml into LAD, 45 to 70 seconds after injection
# From the text: FIG. 5 depicts the effect of Compound I (with and without added Ca) and Visipaque on LVSP 45 to 70 seconds from the start of injection to the LAD of normal pigs normalised to Ringer Lacate (LR) injection.
# The haemodynamic effects of compositions of Compound I with and without added CaCl2 were compared to Visipaque and Iopamidol following selective administration to the LAD in normal pigs without balloon occlusion. The effects of each contrast media were normalised to any effects seen with an equivalent injection of Ringer Lactate solution, which acted as a volume and electrolyte—“ratio” control. There were a total of 12 pigs in this study, and each pig received a single CM injected 3 times at volumes of 10 ml (4 ml/sec), 20 ml (1 ml/sec) and 25 ml (0.4 ml/sec) (total of 9 CM injections in each pig). Each CM was either preceded or followed by a control injection of Ringer Lactate, and the order of each injection (volume) was randomised in each pig.
# porcine heart = experiment: Intravenous and intra-arterial cardiovascular safety, acute porcine model (Example 3); assay type: in vivo, pig
# Protocol: The intravenous (i.v) and intra-arterial (i.a.) safety of a composition of Compound I was shown in a separate study (ref. B145095). In this study the cardiovascular effects of Compound I in a composition with 45 mM NaCl and 0.5 mM CaCl2 was assessed at three dose levels in vivo in an acute porcine model.
# The composition was administered either intra-arterially or intravenously into groups of three animals at one of three dose levels (1-fold, 2-fold or 3-fold the standard volume of 2 ml/kg). Each animal also received an equivalent volume of Ringer-Lactate solution as a volume control. CV effects: heart rate (HR), pulse oximetry, electrocardiogram (ECG), aortic pressure (systolic, diastolic and mean), left ventricular end diastolic pressure (LVEDP) were assessed. Ultrasound/echocardiography to assess stroke volume, ejection fraction and cardiac contractility were also evaluated.
# [1] = system: CD25^+-depleted peripheral blood mononuclear cells; experiment: In vitro T cell proliferation model; assay type: cell-based; conditions: 2 and 5 mg I/mL, 100 donors, positive response stimulation index ≧1.9
# Protocol: Generally, iodinated contrast media may cause late hypersensitivity reactions in susceptible patients from 1 hour to several days after exposure. These reactions are mainly non-serious skin eruptions such as macular, maculopapular and urticaria-like eruptions. Contrast media-induced delayed adverse reactions (DARs) such as skin eruptions appear to be caused by contrast media-reactive T cells that, upon recognizing the contrast media, proliferate and subsequently orchestrate an inflammatory reaction in the skin. The applicant has evaluated an in vitro T cell proliferation model designed to predict the relative frequency with which contrast media, such as Compound I, will cause late skin reactions in patients post-intravascular administration. Two contrast media, iodixanol and iohexol, with known rates of delayed skin reactions, and the new contrast medium, Compound I, was screened (2 and 5 mg I/mL) for in vitro T cell proliferation in CD25^+-depleted peripheral blood mononuclear cells from 100 donors representing world population HLA-DR frequencies. Positive T cell responses were evaluated according to published protocols and stimulation index values (positive response≧1.9). In vitro toxicity was tested by measuring cell viability of the first 10 donor samples incubated with test contrast media (5 mg I/mL). The results were that all major HLA-DR allotypes were represented with a frequency equivalent to the world population. No contrast media tested appeared to have a meaningful effect on cell viability. […] For iodixanol and iohexol, T cell proliferation responses for most donors occurred on days 7 and 8; statistical significance favored a reduced proliferation response to Compound I on day 8. In conclusions the model successfully established the relative frequency with which contrast media caused in vitro T cell activation. The results correlated with reported frequency of late skin reactions with two marketed contrast media and identified a lower frequency for Compound I.
compound,measurement,setting,value
"O=CN(CC(O)CN(C=O)c1c(I)c(C(=O)NCC(O)CO)c(I)c(C(=O)NCC(O)CO)c1I)c1c(I)c(C(=O)NCC(O)CO)c(I)c(C(=O)NCC(O)CO)c1I (centres unmarked) [Compound I, 5-[formyl-[3-[formyl-[3,5-bis(2,3-dihydroxypropylcarbamoyl)-2,4,6-triiodophenyl]amino]-2-hydroxypropyl]amino]-N,N′-bis(2,3-dihydroxypropyl)-2,4,6-triiodobenzene-1,3-dicarboxamide]",LVSP change normalised to Ringer Lactate,normal pigs; composition with 45 mM NaCl and 0.5 mM CaCl2,−0.3 mm Hg
same,LVSP change normalised to Ringer Lactate (mean),"normal pigs; composition with 45 mM NaCl, no added CaCl2",−5.7 mm Hg
same,"effect on aortic pressure (systolic, diastolic and mean)","porcine heart; entire dose range, i.v. or i.a.",little or no effect
same,QT interval,porcine heart; i.a. or i.v. dosing,within the normal range
same,"myocardial performance, overall","porcine heart; i.a. or i.v. route, up to 3-fold of 2 ml/kg",no overall changes to myocardial performance
same,heart rate (HR),"porcine heart; i.v. or i.a., 1- to 3-fold of 2 ml/kg",remained within normal ranges
same,LVEDP,"porcine heart; increasing doses, i.v. or i.a.",slight increases
same,"end diastolic volume (EDV), echocardiography","porcine heart; pig, in vivo",only a slight change
same,rhythm disturbances (ECG),"porcine heart; pig, in vivo",no Compound I-related rhythm disturbances
same,oxygen saturation (pulse oximetry),"porcine heart; throughout dosing, i.v. or i.a., 1- to 3-fold of 2 ml/kg, composition with 45 mM NaCl and 0.5 mM CaCl2",approximately 98%
same,positive T cell proliferation donor samples,[1],fewer positive T cell proliferation donor samples compared with iodixanol and iohexol; also recorded: lowest capacity for stimulating in vitro T cell proliferation
